Source: patent US6284461A, “Use of inhibitors in reporter assays” (priority 1998, dated 2001)
“Also recorded” adds a separate entry of the source.

Assays:
[1] = test system: background beta-lactamase activity (cytosolic); experiment: Background beta-lactamase activity in CHO reporter cells after blocking enzyme synthesis (Example I); format: cell-based; conditions: 40 μg/ml cycloheximide, low and high expressing CHO cells, even after 5 hours
Description: (§1) One day before the assay, CHO cells (an adherent cell line) expressing a cytosolic beta-lactamase reporter gene (WO 96/30540 to Tsien et al., published Oct. 3, 1996)) under control of a G-protein coupled receptor (GPCR) were plated in six clear-bottom 96-well microtiter plates at 75% confluency. The cells in half of the wells were stimulated overnight with agonist to the GPCR. Thus, these cells expressed high levels of the reporter enzyme encoded by the reporter gene. The other half of the cells were maintained without agonist in media having dialyzed fetal calf serum. This population is representative of cells with only background levels of beta-lactamase expression. These unstimulated cells expressed the reporter enzyme at levels lower than in the stimulated cells. After sixteen hours, the media was removed, the stimulated cells and the unstimulated cells were washed once by replacing the culture media by aspiration with an equal volume of phosphate buffered saline and then treated with 40 μg/ml cycloheximide in RPMI medium 1640 with 0.1% bovine serum albumin (BSA). […] After thirty minutes of incubation, the fluorescence from the wells was determined using a microtiter plate fluorimeter with excitation at 395/20nm and emission at 460/40nm and 530/30nm. The raw fluorescence emission values were corrected for the signal from wells without cells. […]

[2] = target: T1, cytosolic beta-lactamase reporter enzyme (Escherichia coli, UniProt P62593); experiment: Inhibition of cytosolic beta-lactamase reporter activity in live Jurkat cells, CMV promoter (Example II); format: cell-based; conditions: 300 μM inhibitor, one hour at 37° C.
T1 construct: CCF2/AM read-out
Description: as §1, with “expression.” for “expression. These unstimulated cells expressed the reporter enzyme at levels lower than in the stimulated cells. After sixteen hours, the media was removed, the stimulated cells and the unstimulated cells were washed once by replacing the culture media by aspiration with an equal volume of phosphate buffered saline and then treated with 40 μg/ml cycloheximide in RPMI medium 1640 with 0.1% bovine serum albumin (BSA).”
Jurkat cells (a non-adherent cell line) expressing a cytosolic beta-lactamase reporter enzyme (WO 96/30540 to Tsien et al., published Oct. 3, 1996) under the control of the constitutively active cytomegalovirus early promoter (CMV promoter) were incubated with three inhibitors: clavulanic acid, imipenem and HOB-1-70. […] Cells were treated for one hour at 37° C., after which beta-lactamase reporter activity was assessed as in Example I (FIG. 2).

[3] = test system: cytosolic beta-lactamase reporter; experiment: Wash-out of inhibitor from Jurkat C2 cells (M1 receptor, NF-AT beta-lactamase reporter) (Example III); format: cell-based
Description: as §1, with “expression.” for “expression. These unstimulated cells expressed the reporter enzyme at levels lower than in the stimulated cells. After sixteen hours, the media was removed, the stimulated cells and the unstimulated cells were washed once by replacing the culture media by aspiration with an equal volume of phosphate buffered saline and then treated with 40 μg/ml cycloheximide in RPMI medium 1640 with 0.1% bovine serum albumin (BSA).”
These studies used a Jurkat cell clone (referred to as "C2 cells" ) containing the M1 -receptor and a cytosolic beta-lactamase reporter gene (WO 96/30540 to Tsien et al., published Oct. 3, 1996)) regulated by a NF-AT response element. […] Higher beta-lactamase activity was detected in the cells as the time after the inhibitor was washed out of the cells increased.

beta-lactamase = conditions: cited from earlier work
[4] = target: T1, cytosolic beta-lactamase reporter enzyme; experiment: Irreversibility of intracellular beta-lactamase inhibition in CHO GPCR reporter cells (Example IV); format: cell-based; conditions: washed
[5] = test system: cytosolic beta-lactamase activity; experiment: Background versus de novo beta-lactamase activity in CHO GPCR reporter cells after inhibitor pretreatment (Example V); format: cell-based; conditions: 300 μM clavulanic acid sixteen hours, washed, unstimulated, three hours
Description: One day before the assay, CHO cells (an adherent cell line) expressing a cytosolic beta-lactamase reporter gene (WO 96/30540 to Tsien et al., published Oct. 3, 1996)) under control of a G-protein coupled receptor (GPCR) were plated in six clear-bottom 96-well microtiter plates at 75% confluency. The cells in half of the wells were stimulated overnight with agonist to the GPCR. Thus, these cells expressed high levels of the reporter enzyme encoded by the reporter gene. The other half of the cells were maintained without agonist in media having dialyzed fetal calf serum. This population is representative of cells with only background levels of beta-lactamase expression. These unstimulated cells expressed the reporter enzyme at levels lower than in the stimulated cells. After sixteen hours, the media was removed, the stimulated cells and the unstimulated cells were washed once by replacing the culture media by […] (BSA). Because CHO cells are adherent, aspiration is the preferred method of removing culture media, which is then replaced with wash media or wash solution. […] After thirty minutes of incubation, the fluorescence from the wells was determined using a microtiter plate fluorimeter with excitation at 395/20nm and emission at 460/40nm and 530/30nm. The raw fluorescence emission values were corrected for the signal from wells without cells. […]

cytosolic beta-lactamase = target: T2, cytosolic beta-lactamase (Escherichia coli, UniProt P62593); experiment: Inhibitor added together with CCF2/AM in CHO nuclear receptor beta-lactamase reporter cells (Example IX); format: cell-based
T2 construct: CCF2/AM read-out

[6] = target: T1, cytosolic beta-lactamase reporter enzyme; experiment: Agonist titration in CHO GPCR reporter cells with or without inhibitor pretreatment (Example VI); format: cell-based

T2 sequence (P62593 24-286 limits assumed): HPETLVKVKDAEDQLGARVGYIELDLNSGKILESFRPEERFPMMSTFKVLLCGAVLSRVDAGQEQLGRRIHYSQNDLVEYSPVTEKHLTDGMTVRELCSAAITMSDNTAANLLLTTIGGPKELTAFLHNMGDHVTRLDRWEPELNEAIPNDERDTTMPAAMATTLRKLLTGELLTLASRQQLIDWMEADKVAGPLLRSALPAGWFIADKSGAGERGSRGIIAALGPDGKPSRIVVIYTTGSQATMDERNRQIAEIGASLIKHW
T1 sequence (P62593 24-286 limits assumed): as above

| Compound | ratio values (460/40nm over 530/30nm emission) [1] | reduction of cytosolic beta-lactamase reporter activity [2] | beta-lactamase activity, no-wash control ([3]; 100 microM clavulanic acid for sixteen hours, inhibitor present throughout, with or without 100 microM carbacol) | de novo beta-lactamase activity after wash-out of inhibitor ([3]; 100 microM clavulanic acid sixteen hours, washed once, 0-3 hours after wash, then 100 microM carbacol for three hours) | molecules of inhibitor hydrolyzed on average before the beta-lactamase is irreversibly inactivated (beta-lactamase; beta-lactamase used in the cell based assays, source not given) | reversibility of beta-lactamase inhibition (beta-lactamase; literature (Bulychev et al. 1995; Knowles 1985)) | persistence of inhibition of intracellular beta-lactamase reporter enzyme ([4]; 300 μM clavulanic acid pretreatment, cycloheximide) | ratio values (460/40nm over 530/30nm emission) ([4]; 300 μM clavulanic acid sixteen hours, 40 μg/ml cycloheximide, low and high expressing cells, even after five hours) | background beta-lactamase reporter activity after pretreatment [5] | ratio of fluorescence from stimulated cells over unstimulated cells (cytosolic beta-lactamase; 16.7 microμ clavulanic acid present) | improvement in signal-to-noise ratio (cytosolic beta-lactamase; 16.7 microμ clavulanic acid versus absence of inhibitor) | background (unstimulated) ratio levels (cytosolic beta-lactamase; CHO nuclear receptor reporter cells, 16.7 microμ clavulanic acid present during CCF2/AM loading) | beta-lactamase activity in stimulated cells (cytosolic beta-lactamase; agonist-stimulated CHO cells, 16.7 microμ clavulanic acid present during CCF2/AM loading) | background beta-lactamase activity in agonist assay ([6]; CHO cells pretreated with 300 μM clavulanic acid sixteen hours, washed, three hours agonist) | signal-to-noise ratio of agonist assay ([6]; cells pretreated with clavulanic acid versus untreated) |
| --- | --- | --- | --- | --- | --- | --- | --- | --- | --- | --- | --- | --- | --- | --- | --- |
| C[C@@H]1C[C@@H]([C@H](O)CC2CC(=O)NC(=O)C2)C(=O)[C@@H](C)C1 [cycloheximide] | above 0.2 |  |  |  |  |  |  |  |  |  |  |  |  |  |  |
| C[C@@H](O)[C@H]1C(=O)N2C(C(=O)O)=C(SCCN=CN)C[C@H]12 [imipenem] |  | did not have a similar effect |  |  |  |  |  |  |  |  |  |  |  |  |  |
| O=C(O)[C@H]1/C(=C/CO)O[C@@H]2CC(=O)N21 [clavulanic acid] |  | reduced the reduced beta-lactamase activity in these cells to levels found in cells that do not have the reporter; also recorded: essentially reduced reporter beta-lactamase activity to values found for a naive Jurkat population | beta-lactamase activity, both residual and synthesized de novo, was reduced | Stimulation of cells, even immediately after the wash, results in de novo synthesis of beta-lactamase that can be detected | about 100 molecules | irreversible | irreversibly inhibited; also recorded: remains inhibited for at least five hours | about 0.2 | effective means of lowering the background beta-lactamase reporter activity; also recorded: readily inhibited | 32 fold | almost a three-fold improvement | 0.090±0.015 | did not change significantly | much lower | the signal-to-noise ratio was improved |
